Laboratory results: PubChem BioAssay (NCI)
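The concentration for 50% growth inhibition is given as GI50. Definition used: TGI = concentration required for complete inhibition of growth.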

Key:
Assay in all cases: growth of human tumour cells (NCI), 384-well format
786-0 renal = tested on: 786-0 renal
A498 renal = tested on: A498 renal
A549 NSCLC = tested on: A549 NSCLC
ACHN renal = tested on: ACHN renal
BT-549 breast = tested on: BT-549 breast
CAKI-1 renal = tested on: CAKI-1 renal
CCRF-CEM leukemia = tested on: CCRF-CEM leukemia
COLO 205 colon = tested on: COLO 205 colon
DU-145 prostate = tested on: DU-145 prostate
EKVX NSCLC = tested on: EKVX NSCLC
HCC-2998 colon = tested on: HCC-2998 colon
HCT-116 colon = tested on: HCT-116 colon
HCT-15 colon = tested on: HCT-15 colon
HL-60(TB) leukemia = tested on: HL-60(TB) leukemia
HOP-62 NSCLC = tested on: HOP-62 NSCLC
HOP-92 NSCLC = tested on: HOP-92 NSCLC
HS 578T breast = tested on: HS 578T breast
HT29 colon = tested on: HT29 colon
IGROV1 ovarian = tested on: IGROV1 ovarian
K-562 leukemia = tested on: K-562 leukemia
KM12 colon = tested on: KM12 colon
LOX IMVI melanoma = tested on: LOX IMVI melanoma
M14 melanoma = tested on: M14 melanoma
MALME-3M melanoma = tested on: MALME-3M melanoma
MCF7 breast = tested on: MCF7 breast
MDA-MB-435 melanoma = tested on: MDA-MB-435 melanoma
MDA-MB-468 breast = tested on: MDA-MB-468 breast
MOLT-4 leukemia = tested on: MOLT-4 leukemia
NCI-H226 lung = tested on: NCI-H226 lung
NCI-H23 lung = tested on: NCI-H23 lung
NCI-H322M lung = tested on: NCI-H322M lung
NCI-H460 NSCLC = tested on: NCI-H460 NSCLC
NCI-H522 lung = tested on: NCI-H522 lung
NCI/ADR-RES ovarian = tested on: NCI/ADR-RES ovarian
OVCAR-3 ovarian = tested on: OVCAR-3 ovarian
OVCAR-4 ovarian = tested on: OVCAR-4 ovarian
OVCAR-8 ovarian = tested on: OVCAR-8 ovarian
PC-3 prostate = tested on: PC-3 prostate
RPMI-8226 leukemia = tested on: RPMI-8226 leukemia
RXF 393 renal = tested on: RXF 393 renal
SF-268 CNS = tested on: SF-268 CNS
SF-295 CNS = tested on: SF-295 CNS
SF-539 CNS = tested on: SF-539 CNS
SK-MEL-2 melanoma = tested on: SK-MEL-2 melanoma
SK-MEL-28 melanoma = tested on: SK-MEL-28 melanoma
SK-MEL-5 melanoma = tested on: SK-MEL-5 melanoma
SK-OV-3 ovarian = tested on: SK-OV-3 ovarian
SN12C renal = tested on: SN12C renal
SNB-19 CNS = tested on: SNB-19 CNS
SNB-75 CNS = tested on: SNB-75 CNS
SW-620 colon = tested on: SW-620 colon
TK-10 renal = tested on: TK-10 renal
U251 glioblastoma = tested on: U251 glioblastoma
UACC-257 melanoma = tested on: UACC-257 melanoma
UACC-62 melanoma = tested on: UACC-62 melanoma

Nc1cc2c(cc1Cl)C(=O)c1ccccc1C2=O
GI50 ([…]-0 renal): 2.35 µM | TGI (786-0 renal): 8.08 µM | GI50 (A498 renal): 2.18 µM | TGI (A498 renal): 5.32 µM | GI50 (A549 NSCLC): 6.15 µM | TGI (A549 NSCLC): 19.9 µM | GI50 (ACHN renal): 2.47 µM | TGI (ACHN renal): 12.7 µM | GI50 (BT-549 breast): 2.67 µM | TGI (BT-549 breast): 8.24 µM | GI50 (CAKI-1 renal): 13.2 µM | TGI (CAKI-1 renal): 26.3 µM | GI50 (CCRF-CEM leukemia): 71 µM | TGI (CCRF-CEM leukemia): > 100 µM | GI50 (COLO 205 colon): 10.4 µM | TGI (COLO 205 colon): 22.6 µM | GI50 (DU-145 prostate): 14.3 µM | TGI (DU-145 prostate): 29 µM | GI50 (EKVX NSCLC): 6.17 µM | TGI (EKVX NSCLC): 20.6 µM | GI50 (HCC-2998 colon): 11 µM | TGI (HCC-2998 colon): > 100 µM | GI50 (HCT-116 colon): 3.1 µM | TGI (HCT-116 colon): 12.3 µM | GI50 (HCT-15 colon): 15 µM | TGI (HCT-15 colon): 32.3 µM | GI50 (HL-60(TB) leukemia): > 100 µM | TGI (HL-60(TB) leukemia): > 100 µM | GI50 (HOP-62 NSCLC): 2.34 µM | TGI (HOP-62 NSCLC): 4.24 µM | GI50 (HOP-92 NSCLC): 3.85 µM | TGI (HOP-92 NSCLC): 13.7 µM | GI50 (HS 578T breast): 4.51 µM | TGI (HS 578T breast): 15.8 µM | GI50 (HT29 colon): 26 µM | TGI (HT29 colon): > 100 µM | GI50 (IGROV1 ovarian): 1.33 µM | TGI (IGROV1 ovarian): 17.9 µM | GI50 (K-562 leukemia): 24.9 µM | TGI (K-562 leukemia): 74.7 µM | GI50 (KM12 colon): 11.1 µM | TGI (KM12 colon): 24 µM | GI50 (LOX IMVI melanoma): 0.276 µM | TGI (LOX IMVI melanoma): 16.4 µM | GI50 (M14 melanoma): 14.2 µM | TGI (M14 melanoma): 30.4 µM | GI50 (MALME-3M melanoma): 17.2 µM | TGI (MALME-3M melanoma): 47.8 µM | GI50 (MCF7 breast): 11.1 µM | TGI (MCF7 breast): 23.3 µM | GI50 (MDA-MB-435 melanoma): 19.9 µM | TGI (MDA-MB-435 melanoma): 44.3 µM | GI50 (MDA-MB-468 breast): 0.228 µM | TGI (MDA-MB-468 breast): 9.07 µM | GI50 (MOLT-4 leukemia): 23.8 µM | TGI (MOLT-4 leukemia): 83.7 µM | GI50 (NCI-H226 lung): 1.86 µM | TGI (NCI-H226 lung): 17 µM | GI50 (NCI-H23 lung): 2.65 µM | TGI (NCI-H23 lung): 11.3 µM | GI50 (NCI-H322M lung): 6.15 µM | TGI (NCI-H322M lung): 24 µM | GI50 (NCI-H460 NSCLC): 3.76 µM | TGI (NCI-H460 NSCLC): 13.9 µM | GI50 (NCI-H522 lung): 10.2 µM | TGI (NCI-H522 lung): 21.9 µM | GI50 (NCI/ADR-RES ovarian): 4.35 µM | TGI (NCI/ADR-RES ovarian): 17.5 µM | GI50 (OVCAR-3 ovarian): 6.94 µM | TGI (OVCAR-3 ovarian): 20.4 µM | GI50 (OVCAR-4 ovarian): 1.1 µM | TGI (OVCAR-4 ovarian): 9.47 µM | GI50 (OVCAR-8 ovarian): 4.16 µM | TGI (OVCAR-8 ovarian): 13.8 µM | GI50 (PC-3 prostate): 10.1 µM | TGI (PC-3 prostate): 22 µM | GI50 (RPMI-8226 leukemia): 3.13 µM | TGI (RPMI-8226 leukemia): 12 µM | GI50 (RXF 393 renal): 4.01 µM | TGI (RXF 393 renal): 15 µM | GI50 (SF-268 CNS): 11.6 µM | TGI (SF-268 CNS): 24 µM | GI50 (SF-295 CNS): 2.86 µM | TGI (SF-295 CNS): 9.19 µM | GI50 (SF-539 CNS): 1.66 µM | TGI (SF-539 CNS): 3.06 µM | GI50 (SK-MEL-2 melanoma): 2.56 µM | TGI (SK-MEL-2 melanoma): 7.19 µM | GI50 (SK-MEL-28 melanoma): 17.8 µM | TGI (SK-MEL-28 melanoma): 42.2 µM | GI50 (SK-MEL-5 melanoma): 3.59 µM | TGI (SK-MEL-5 melanoma): 50.6 µM | GI50 (SK-OV-3 ovarian): 4.81 µM | TGI (SK-OV-3 ovarian): 18.4 µM | GI50 (SN12C renal): 4.44 µM | TGI (SN12C renal): 16.9 µM | GI50 (SNB-19 CNS): 3.59 µM | TGI (SNB-19 CNS): 12.8 µM | GI50 (SNB-75 CNS): 2.92 µM | TGI (SNB-75 CNS): 7.13 µM | GI50 (SW-620 colon): 11.8 µM | TGI (SW-620 colon): 25.1 µM | GI50 (TK-10 renal): 2.63 µM | TGI (TK-10 renal): 12.9 µM | GI50 (U251 glioblastoma): 3.21 µM | TGI (U251 glioblastoma): 11 µM | GI50 (UACC-257 melanoma): 17.6 µM | TGI (UACC-257 melanoma): 52 µM | GI50 (UACC-62 melanoma): 7.21 µM | TGI (UACC-62 melanoma): 20.9 µM
